Measured values as given in US20150351394A1, “BACTERICIDAL COMPOSITION CONTAINING FLUAZINAM” (Shenzhen Noposion Agrochemicals Co., Ltd., priority 2014, published 2015).

Tests used:
[1] = system: pepper phytophthora capsici; assay: Indoor toxicity test on potted pepper seedlings inoculated with pepper phytophthora capsici (NY/T1156.11-2008); type: in vivo; conditions: single active compound, survey 8 days after inoculation
Description: The pepper phytophthora capsici is acted as test object.
Test methods: referring to the “Republic of China agricultural industry standard NY/T1156.11-2008”, selecting growing consensus potted pepper seedlings, selecting five pots per test object with respective number for use, spraying five milliliters for each pot by a Potter spray tower in a pressure of 50 PSI. The test results are shown in Tables 1 and 2 and each test pesticide is provided with five concentration gradients. After 24 hours, five millimeters pepper phytophthora capsici mycelium blocks are inoculated into the objects. Pepper seedlings with an equal amount of water spraying are selected as the blank control. After inoculation, pepper seedlings are shifted into light moisturizer cabinets for culture. After 8 days, in accordance with grading standards of incidence of pepper phytophthora blights, the disease indexes are surveyed and the control effects are calculated.
Capsici disease classification criteria:
0 level: no lesion on the leaves;
1 level: lesion area of the total leaf area is 5% or less;
3 level: lesion area of the total leaf area is from 6% to 10%;
5 level: lesion area of the total leaf area is from 11% to 25%;
7 level: lesion area of the total leaf area is from 25% to 50%;
9 level: lesion area of the total leaf area is 50% or more.
Disease index=[Σ(leaf quantity in each level×respective level number)×100]/(Total quantity of tested leaves×9).
Control effect (%)=[(blank disease index−treated disease index)]×100]/blank disease index.
Expected effect of a mixture of the active ingredients (i.e., control effect in theory, %) is determined by using Colby's formula and is compared with observed effect:
Colby formula: E=X+Y−X*Y/100
E: expected effect of the composition provided that active ingredient A thereof is in a concentration of a value, and active ingredient B is in a concentration of b value.
X: expected effect provided that usage dose of the active ingredient A is a value.
Y: expected effect provided that usage dose of the active ingredient B is b value.
It is testified that the mixture has a synergistic effect when the actual control effect observed exceeds the expected control effect.

[2] = system: pepper phytophthora blight; assay: Field efficacy experiment against the pepper phytophthora blight (Haikou, Hainan); type: in vivo, phytophthora capsici; conditions: two foliar sprays 7 days apart, field peppers
Description: Test site is Haikou in Hainan. […] Four plots are treated per pesticide and replicates. Each plot has surface area of 20 square meters. The pesticides are applied in the early occurrence of disease and are uniformly sprayed onto the leaves until dripping for the first time. Clean water is used as the blank control. Seven days later, the pesticides are applied for the second time. Disease incidence of the pepper phytophthora blights to the peppers prior to the first pesticide application and that of after 15 days from the second pesticide application are surveyed. Each plot uses a five-point sampling means, surveying two per point, and recording the number of diseased plants, dead plants and apparent withered plants. Disease index and control effect are calculated for each treatment.
Classification method (according to symptom types):
0 level: health, no disease;
1 level: lesions happen only to overground leaves and fruitst;
3 level: brown rot spots happen to overground stems and branches;
5 level: brown rot spots happen to the stem base;
7 level: brown rot spots happen to overground stems, branches and stem base, and some dead branches;
9 level: entire plant dead.
Efficacy calculation method:
Disease index=[Σ(plant quantity in each level×respective level number)×100]/(Total quantity of tested plants×9). […]

Row | Compound | Actual effect (control effect) ([1]; 1 ppm in spraying droplet) [%] | Actual effect (control effect) ([1]; 10 ppm in spraying droplet) [%] | Actual effect (control effect) ([1]; 30 ppm in spraying droplet) [%] | Actual effect (control effect) ([1]; 50 ppm in spraying droplet) [%] | Actual effect (control effect) ([1]; 100 ppm in spraying droplet) [%] | Control effects ([2]; 20 g a.i./ha) [%] | Actual effect (control effect) ([1]; 20 ppm in spraying droplet) [%] | Control effects ([2]; 250 g a.i./ha) [%]
1 | C=CCc1ccc(O)c(OC)c1 [Eugenol, 4-allyl-2-methoxy-phenol] | 6.2 | 17.6 | 46.3 | 63.8 | 79.5 | 71.6 |  | 
2 | O=[N+]([O-])c1cc(C(F)(F)F)c(Cl)c([N+](=O)[O-])c1Nc1ncc(C(F)(F)F)cc1Cl [Fluazinam, 3-chloro-N-(3-chloro-5-trifluoromethyl-2-pyridyl)-α,α,α-trifluor-2,6-dinitro-p-toluidine] | 11.4 | 31.2 |  | 71.4 | 87.1 |  | 52.9 | 78.7
